The target in one experiment is T1, βARR1–JNK3 interaction (Rattus norvegicus, UniProt P29066).
T1 construct: made in house
The experiment is described as follows: Flag pulldown of βARR1 with JNK3. The format is biochemical. The note with it: 20-fold molar excess of compound, 30 min. How it is done:
(§1) To assess the effects of the compounds on βARR1 interactions with its effector proteins SRC and JNK3, βARR1–Flag (5 μM) was incubated with a 20-fold molar excess of Cmpd-5, Cmpd-46 or Cmpd-64 for 30 min at room temperature. Subsequently, 15 μM of SRC or JNK3 was added. To evaluate compound effects on βARR1–ERK2 binding, βARR1 (15 μM) was pre-incubated with a 20-fold molar excess of Cmpd-5, Cmpd-46 or Cmpd-64 for 30 min at room temperature, followed by the addition of 5 μM ERK2–Flag. Afterward, 50 μl of anti-Flag M2 affinity gel (Millipore Sigma) was added, and the mixtures were incubated for 1 h at room temperature with rotation. The resin was then collected by centrifugation and washed 3 times with 1 ml of 20 mM HEPES (pH 7.5), 100 mM NaCl. Bound proteins were eluted using 0.2 mg ml^−1 Flag peptide in 20 mM HEPES (pH 7.5), 100 mM NaCl, mixed with Laemmli sample buffer (Bio-Rad), and analysed by SDS–PAGE followed by western blotting. Detection was performed using monoclonal anti-Flag M2-peroxidase (HRP) antibody (1:2,000, Sigma-Aldrich A8592, RRID:AB_439702) for βARR1–Flag and ERK2–Flag; polyclonal A1CT antibody[76] (1:5,000) for βARR1; anti-SRC monoclonal antibody (1:10,000, EMD Millipore 05-184, RRID:AB_2302631) for SRC; and anti-JNK3 monoclonal antibody (1:5,000, Cell Signaling 2305, RRID:AB_2281744) for JNK3. Western blot images were taken using Bio-Rad ChemiDoc system and the densitometry analysis was performed by ImageLab v6.1 and statistical differences were determined by one-way ANOVA with Dunnett’s post hoc test in GraphPad Prism software.

The target in the next experiment is T2, βARR1 (Rattus norvegicus, UniProt P29066).
T2 construct: βARR1 or βARR2 construct, with their C terminus truncated (at amino acid 393 or 394, respectively); GST (pGEX4T1) (N, cleaved yes); made in house; host or cells: E. coli BL21 (DE3) pLysS
T2 sequence (P29066 1-393): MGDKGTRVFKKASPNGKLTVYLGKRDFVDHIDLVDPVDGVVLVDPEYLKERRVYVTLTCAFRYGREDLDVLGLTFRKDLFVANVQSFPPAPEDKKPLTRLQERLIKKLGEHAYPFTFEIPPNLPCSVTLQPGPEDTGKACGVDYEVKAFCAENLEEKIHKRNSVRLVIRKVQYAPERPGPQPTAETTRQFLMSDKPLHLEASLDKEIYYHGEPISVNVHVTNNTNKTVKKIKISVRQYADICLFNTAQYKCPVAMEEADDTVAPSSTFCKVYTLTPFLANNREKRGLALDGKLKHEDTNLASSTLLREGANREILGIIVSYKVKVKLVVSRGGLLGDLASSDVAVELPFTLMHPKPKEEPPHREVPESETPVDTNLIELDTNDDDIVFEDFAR
The experiment is described as follows: ITC binding to βARR1. The conditions noted are these: for Kd: one-site model. On the procedure:
The expression and purification of β-arrestins have been described previously[44],[62]–[64]. In brief, E. coli BL21 (DE3) pLysS cells (New England Biolabs: C2527I) carrying pGEX4T1-Rattus norvegicus βARR1 or βARR2 construct, with their C terminus truncated (at amino acid 393 or 394, respectively), were cultured in Terrific Broth (Teknova) medium at 37 °C. After OD600 reached 0.6–0.8, the cells were induced with 0.1 mM isopropyl-β-D-thiogalactopyranoside (IPTG) at 18 °C overnight. Bacteria were collected by centrifugation (4,000 rpm), and cell pellets were resuspended in lysis buffer (20 mM HEPES, pH 8, 150 mM NaCl, 10% glycerol, 1 mM EDTA, 0.2 mM dithiothreitol (DTT), 1 mM phenylmethylsulfonyl fluoride, and 1 mM benzamidine) at 4 °C for 1 h. Cell suspensions were sonicated, centrifuged (14,000 rpm, 30 min, 4 °C), and the supernatant was loaded onto pre-equilibrated glutathione–agarose resin (GoldBio). After 3 h of binding at 4 °C, the beads were washed, and thrombin was added for overnight cleavage. The proteins were further purified by anion exchange chromatography followed by size-exclusion chromatography using a Superdex 200 Increase 10/300 GL column on an ÄKTA FPLC system (GE Healthcare). Eluted fractions were analysed by SDS–PAGE, pooled, concentrated using 30 kDa MWCO Amicon Ultra-15 Centrifugal Filter devices, flash-frozen in liquid nitrogen, and stored in aliquots at −80 °C. The same rat βARR1 constructs with mutations (L129A, L129S, L129G, P131A, P133A, E134A, D135A, K138A, C140A, Y249A, C251A, E283A, K284A and R285A) were generated and purified in a similar manner. Recombinant Gα subunits (Gαs, Gαq and Gαi) were purified as GST fusion proteins using glutathione–agarose affinity chromatography as previously described. The heterotrimeric Gs protein complex, composed of Gαs, Gβ1 and Gγ2 subunits, was expressed in Sf9 cells using the baculovirus expression system and purified as previously described. M2R expression, purification and reconstitution into high-density lipoprotein (HDL) particles were performed as previously described. ERK2, SRC, p38α and JNK3 kinases were expressed and purified using previously established protocols[6],[16]. Protein concentrations for each protein were determined by ultraviolet absorption at 280 nm and extinction coefficients estimated using the ExPASy ProtParam tool[67].
ITC measurements were performed on a MicroCal iTC200 system at 25 °C. Prior to ITC experiments, all proteins (βARR1, βARR2 or βARR1 mutants) were extensively dialysed against 20 mM HEPES (pH 7.4), 100 mM NaCl, and 3 μM TCEP. Protein concentrations were determined by spectrophotometry at 280 nm, using extinction coefficients calculated from each protein sequence via the ProtParam program. The dialysis buffer was used to dilute DMSO stock solutions of β-arrestin small-molecule modulators to their final concentrations for measurements. For each ITC experiment, β-arrestin modulators (Cmpd-5 at 350 μM, Cmpd-46 at 450 μM, and Cmpd-64 at 450 μM) were loaded into the syringe and titrated into the calorimetric cell containing βARR1, βARR1 mutants or βARR2 (at about 30–40 μM, depending on the protein and experiment). Additional ITC experiments were also performed using purified GST-fused Gα subunits (Gαs, Gαq and Gαi; about 30 μM) and Gαiβγ heterotrimer (about 30 μM). Gα subunits were prepared in the same buffer (20 mM HEPES, pH 7.4, 100 mM NaCl, 3 μM TCEP), whereas the Gαiβγ heterotrimer was maintained in buffer supplemented with 0.05% DDM and 10 μM GDP, with matched DMSO carrier conditions. Modulators (300 μM) or corresponding DMSO controls were loaded and titrated as described above. The reference cell was filled with distilled water. In all experiments, the titration sequence typically consisted of an initial 0.4 μl injection, followed by 19 injections of 2 μl each, with a 180-s interval between injections to allow thermal power to return to baseline. […]

A further experiment concerns the target T3, βARR1–SRC interaction (Rattus norvegicus, UniProt P29066).
T3 construct: made in house
The experiment is described as follows: Flag pulldown of βARR1 with SRC. The format is biochemical. The note with it: 20-fold molar excess of compound, 30 min. On the procedure: as §1

The target of the next experiment is T4, βARR1–ERK2 interaction (Rattus norvegicus, UniProt P29066).
T4 construct: βARR1 or βARR2 construct, with their C terminus truncated (at amino acid 393 or 394, respectively); GST (pGEX4T1) (N, cleaved yes); made in house
T4 sequence (P29066 1-393): as above
The experiment is described as follows: Flag pulldown of βARR1 with ERK2. The format is biochemical. The note with it: 20-fold molar excess of compound, 30 min. On the procedure:
as §1

Where “and” joins values, the source holds several entries; their conditions need not be identical. Equal entries are not always repeated. Entries after “also recorded” stand apart in the source; their conditions may differ.

T1 sequence (P29066 whole entry): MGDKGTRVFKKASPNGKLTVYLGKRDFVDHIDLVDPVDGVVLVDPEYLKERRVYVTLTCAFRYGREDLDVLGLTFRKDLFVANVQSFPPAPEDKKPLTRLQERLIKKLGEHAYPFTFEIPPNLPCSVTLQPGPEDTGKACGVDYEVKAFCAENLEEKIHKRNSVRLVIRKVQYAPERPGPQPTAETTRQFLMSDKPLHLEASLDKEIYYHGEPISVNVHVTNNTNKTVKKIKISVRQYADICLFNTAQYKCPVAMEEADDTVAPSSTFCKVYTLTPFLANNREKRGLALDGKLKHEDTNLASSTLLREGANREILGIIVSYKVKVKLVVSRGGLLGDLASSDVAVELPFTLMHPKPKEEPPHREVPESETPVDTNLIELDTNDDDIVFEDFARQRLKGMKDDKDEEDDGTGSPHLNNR
T1 sequence (P53779 whole entry partner): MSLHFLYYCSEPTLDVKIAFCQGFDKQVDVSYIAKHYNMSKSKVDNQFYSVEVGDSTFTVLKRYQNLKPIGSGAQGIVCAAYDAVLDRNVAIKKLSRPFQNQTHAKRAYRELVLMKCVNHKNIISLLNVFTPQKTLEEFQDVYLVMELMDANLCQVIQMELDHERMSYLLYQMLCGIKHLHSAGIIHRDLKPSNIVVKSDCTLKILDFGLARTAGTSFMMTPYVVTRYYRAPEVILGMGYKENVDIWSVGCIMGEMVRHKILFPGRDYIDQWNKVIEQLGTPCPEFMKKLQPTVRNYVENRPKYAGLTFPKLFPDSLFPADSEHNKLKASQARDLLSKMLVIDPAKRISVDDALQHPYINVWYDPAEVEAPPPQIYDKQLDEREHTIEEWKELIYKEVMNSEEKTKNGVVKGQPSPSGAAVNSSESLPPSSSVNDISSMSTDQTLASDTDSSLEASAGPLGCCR
T3 sequence (P29066 whole entry): as the sequence (P29066 whole entry) above

One may read the Kd as the concentration at which binding is half-saturated. A higher Kd goes with lower affinity. `C=C1C(=O)[C@]23[C@H](O)[C@H]1CC[C@H]2[C@@]12CO[C@]3(O)[C@@H](O)[C@@H]1C(C)(C)CC[C@@H]2O` [Cmpd-5, (1S,4aR,5S,6S,6aR,9S,11aS,11bS,14R)-1,5,6,14-tetrahydroxy−4,4-dimethyl-8-methylenedecahydro-1H-6,11b-(epoxymethano)-6a,9-methanocyclohepta[a]naphthalen-7(8H)-one]: the “effect on βARR1 binding to JNK3” value on βARR1–JNK3 interaction is listed as “minimal change”. In addition, the “stoichiometry N, βARR1” value at βARR1 was determined as 1. For the same molecule, on βARR1 (25 °C), the “ΔH, βARR1 wild type” value is -13.4 kcal/mol; the Kd was ~400 nM and 362 nM. Further, the “effect on βARR1 binding to SRC” value on βARR1–SRC interaction is given as “reduced”. In addition, at βARR1–ERK2 interaction, the “effect on βARR1 binding to ERK2” value was “reduced; also recorded: significantly inhibited”.
Turning to `C=C1C(=O)C2=CC1CCC(=O)C1(C)CCC(OCC)C(C)(C)C1CC2O` (stereo not shown) [Cmpd-46, (Z)-3-ethoxy-6-hydroxy-4,4,13a-trimethyl-9-methylene-1,2,3,4,4a,5,6,9,10,11,12,13a-dodecahydro-7,10-(metheno)benzo[11]annulene-8,13-dione], at βARR1–JNK3 interaction, the “effect on βARR1 binding to JNK3” value is listed as “minimal change”. At βARR1, the “stoichiometry N, βARR1” value is reported as 1.2. Further, the affinity on βARR1 (25 °C), expressed as Kd, was 1340 ± 740 nM. Also, the “effect on βARR1 binding to SRC” value at βARR1–SRC interaction is given as “markedly reduced”. For the same molecule, the “effect on βARR1 binding to ERK2” value at βARR1–ERK2 interaction was “reduced”.
Taken in the same sequence, the figures for `C=C1C(=O)OC2CC3(C)OC3CCC(C)=CC(OC(C)=O)C12` (stereo not shown) [Cmpd-64, (Z)-4,10a-dimethyl-7-methylene-8-oxo-1a,2,3,6,6a,7,8,9a,10,10a decahydrooxireno[2’,3’:8,9]cyclodeca[1,2-b]furan-6-yl acetate] were “minimal change”, 0.73, 1420 ± 200 nM, “markedly reduced” and “reduced”.

The values are drawn from publication PMC13489962, “Small-molecule modulation of β-arrestins” (Nature, 2026).
